Measurements published in patent publication US9150510B2, “Amino acid derivative” (NIPPON ZOKI PHARMACEUTICAL CO., LTD., priority 2008, dated 2015).

How the values were obtained:
Type in all cases: in vivo
ddY-type mice = assay: Analgesic efficacy test (1): acetic acid writhing test (nociceptive pain model animal); conditions: Mus musculus, 25 min, writhing number, male ddY mice, acetic acid i.p. 25 min after administration, mean ± standard error, read-out: Percent Suppression (%); for inhibition in vivo at 10 mg/kg: oral single dose 10 mg/kg; for inhibition in vivo at 3 mg/kg: oral single dose 3 mg/kg; for inhibition in vivo at 100 mg/kg: oral single dose 100 mg/kg
Description: A compound of the present invention was orally administered to mice, to carry out an analgesic efficacy test according to acetic acid writhing test (nociceptive pain model animal). As an experimental animal, 4-week old male ddY-type mice were previously bred, and thereafter 8 mice per one group were used in the experiment. A solution or suspension prepared by dissolving or suspending a compound of the present invention in a 0.5% (w/v) aqueous CMC-Na solution was orally administered as a test substance in a single dose. While, to a control group, a 0.5% (w/v) aqueous CMC-Na solution was administered in the same manner. After 25 minutes from administration, the mice were intraperitoneally administered with a 0.7% (v/v) acetic acid/physiological saline at the dose of 10 mL/kg. From 5 minutes thereafter, writhing number in a 10-minute period was counted, and a suppressive rate for each individual (mean±standard error) was calculated by the following formula: […]
In the test for significance difference, Baltlett's test was carried out in the comparison between multiple groups of the group administered with test substance with the control group. In the case of homoscedasticity, Dunnett's multiple comparison test of parametrics, and in the case of heteroscedasticity, Dunnett's multiple comparison test of non-parametrics were used. In addition, in the test of dose dependency, Jockheere-Terpstra's test was used. In all cases, significance difference was considered to be found at P<0.05.

[1] = Test of blood kinetics in the rats; conditions: rat, plasma, 2 mg/kg, fasted Wistar male rats, oral single dose of mixed solution of five compounds, each compound 2 mg/5 mL/kg, n=5, LC-MS; for AUC(0-inf): read-out: AUC0-∞ (area under the curve for concentration in blood, time 0 to infinite hours); for Cmax: read-out: Cmax (maximum concentration in plasma)
Method: Ten milligrams of a compound of the present invention was properly converted to a sodium salt with the same amount of sodium hydroxide, where necessary, and each was dissolved in 5 mL of water. Five compounds each among these aqueous solutions of the compounds of the present inventions were mixed, to prepare a mixed solution containing 0.4 mg/mL each of each compound. Six-week old Wistar SPF male rats that were fasted were orally administered with the mixed solution in a single dose using a gavage tube (each compound 2 mg/5 mL/kg, n=5). At time points of 0.25, 0.5, 1, 2, 4, and 8 hours after the administration, about 150 μL of blood was collected using a heparin-added capillary tube from veins of rat tails. The capillary tubes were centrifuged to collect the plasma. The plasma sample was deprotenized and the supernatant was diluted to prepare each of measurement sample solutions. The concentration of the compound of the present invention in each of measurement sample solutions was quantified using LC-MS, and Cmax (maximum concentration in plasma) and AUC (area under the curve for concentration in blood, time 0 to infinite (∞) hours) of the compounds of the present invention were calculated.

Chung model rat = assay: Analgesic efficacy test (2): Chung model rat, neuropathic pain model (allodynia, von Frey filament); conditions: Table 13, Wistar male rats, L5 spinal nerve ligation, mean ± standard error
Method: An analgesic efficacy test was conducted using a Chung model rat, a neuropathic pain model. Using Wistar male rats after passing 9-week old as an experimental animal, a model rat was prepared in accordance with the method of Kim and Chung (Pain, 50, 355-363, 1992). Specifically, left L5 spinal nerves of rats were exposed under anesthetization with pentobarbital (35 mg/kg, intraperitoneal administration), and firmly ligated with 5-0 silk yarn at L5 dorsal root ganglion peripheral side. The animals were placed in a transparent acrylic cage of which bottom was wire netted The measurement of allodynia was carried out using von Frey filament (manufactured by North Coast Medical Inc.) and a 50% reaction threshold was calculated according to an up-down method, in accordance with methods of Chaplan et al. (J. Neurosci. Method, 53, 55-63, 1994) and Lee et al. (J. Neurophysiol., 81, 2226-2233, 1999). The 50% reaction thresholds were measured twice before injury of the spinal nerve, and those animals of which thresholds were outside the standard were removed from the operation of spinal nerve injury. On or after 14 days from the spinal nerve injury, a 50% reaction threshold was measured, and those showing thresholds of 1 g or more and less than 4 g were used as experimental animal. The group was constituted by 7 rats per group so that an average of a 50% reaction threshold for each group would be nearly even.
A solution or suspension prepared by dissolving or suspending a compound of the present invention in a 0.5% (w/v) aqueous CMC-Na solution was orally administered as a test substance in a single dose while, a 0.5% (w/v) aqueous CMC-Na solution was administered in the same manner to the control group for nerve injury. After 30 minutes from the administration, the measurement of allodynia was carried out, and a 50% reaction threshold (mean±standard error) was calculated. In the test for significance difference, Baltlett's test was carried out in the comparison between multiple groups of the group administered with test substance with the control group for nerve injury. In the case of homoscedasticity, Dunnett's multiple comparison test of parametrics, and in the case of heteroscedasticity, Dunnett's multiple comparison test of non-parametrics were used. In all cases, significance difference was considered to be found at P<0.05.

SMILES	inhibition in vivo at 10 mg/kg (ddY-type mice)	AUC(0-inf) [1]	Cmax [1]	also measured
Cn1cc(C[C@H](NC(=O)C=Cc2ccccc2C#N)C(=O)O)c2ccccc21 [Compound 30, N^α-[3-(2-Cyanophenyl)acryloyl]-1-methyl-L-tryptophan]	35.8 ± 9.9%	13400 ng·h/mL	3600 ng/mL	–
O=C(N[C@@H](Cc1c[nH]c2ccccc12)C(=O)O)c1cc2ccccc2oc1=O [Compound 21, N^α-(Coumarin-3-carbonyl)-L-tryptophan]	38.3 ± 6.5%	–	–	50% Reaction Threshold (g), Group Administered with Test Substance, 30 Min. After Administration (Chung model rat; oral single dose 1 mg/kg): 3.93 ± 0.16 g
COc1ccc(C[C@H](NC(=O)C=Cc2cc(F)ccc2F)C(=O)O)cc1 [Compound 52, N-[3-(2,5-Difluorophenyl)acryloyl]-O^4-methyl-L-tyrosine]	–	38200 ng·h/mL	18000 ng/mL	inhibition in vivo at 3 mg/kg (ddY-type mice): 50.9 ± 7.4%
Cn1cc(C[C@H](NC(=O)C=Cc2cccc(C#N)c2)C(=O)O)c2ccccc21 [Compound 34, N^α-[3-(3-Cyanophenyl)acryloyl]-1-methyl-L-tryptophan]	45.2 ± 6.3%	16500 ng·h/mL	3200 ng/mL	–
COc1ccc(C[C@H](NC(=O)C=Cc2ccc(F)cc2)C(=O)O)cc1 [Compound 42, N-[3-(4-Fluorophenyl)acryloyl]-O^4-methyl-L-tyrosine]	–	57700 ng·h/mL	18800 ng/mL	inhibition in vivo at 100 mg/kg (ddY-type mice): 52.7 ± 8.3%
N#Cc1ccc(C=CC(=O)N[C@@H](Cc2c[nH]c3ccccc23)C(=O)O)cc1 [Compound 19, N^α-[3-(4-Cyanophenyl)acryloyl]-L-tryptophan]	–	–	–	50% Reaction Threshold (g), Group Administered with Test Substance, 30 Min. After Administration (Chung model rat; oral single dose 1 mg/kg): 5.16 ± 0.41 g; inhibition in vivo at 100 mg/kg (ddY-type mice): 52.2 ± 6.1%
O=C(C=Cc1ccccc1F)N[C@H](Cc1c[nH]c2ccccc12)C(=O)O [Compound 24, N^α-[3-(2-Fluorophenyl)acryloyl]-D-tryptophan]	35.8 ± 9.3%	148000 ng·h/mL	15000 ng/mL	–
N#CC(=Cc1ccccc1)C(=O)N[C@@H](Cc1c[nH]c2ccccc12)C(=O)O [Compound 25, N^α-(2-Cyano-3-phenylacryloyl)-L-tryptophan]	41.2 ± 11.1%	6800 ng·h/mL	1500 ng/mL	–
O=C(C=Cc1ccccc1C(F)(F)F)N[C@@H](Cc1c[nH]c2ccccc12)C(=O)O [Compound 10, N^α-[3-(2-Trifluoromethylphenyl)acryloyl]-L-tryptophan]	41.6 ± 9.6%	–	–	50% Reaction Threshold (g), Group Administered with Test Substance, 30 Min. After Administration (Chung model rat; oral single dose 10 mg/kg): 6.73 ± 1.26 g
Cn1cc(C[C@H](NC(=O)C=Cc2ccc(C#N)cc2)C(=O)O)c2ccccc21 [Compound 36, N^α-[3-(4-Cyanophenyl)acryloyl]-1-methyl-L-tryptophan]	49.7 ± 11.3%	11400 ng·h/mL	2300 ng/mL	–
CSCC[C@H](NC(=O)C=Cc1ccccc1F)C(=O)O [Compound 67, N-[3-(2-Fluorophenyl)acryloyl]-L-methionine]	43.5 ± 6.9%	–	–	50% Reaction Threshold (g), Group Administered with Test Substance, 30 Min. After Administration (Chung model rat; oral single dose 1 mg/kg): 4.94 ± 0.61 g
COc1ccc(C[C@H](NC(=O)C=Cc2ccccc2F)C(=O)O)cc1 [Compound 40, N-[3-(2-Fluorophenyl)acryloyl]-O^4-methyl-L-tyrosine]	42.3 ± 7%	61700 ng·h/mL	48700 ng/mL	–
N=C(N)NCCC[C@H](NC(=O)C=Cc1ccccc1F)C(=O)O [Compound 64, N^α-[3-(2-Fluorophenyl)acryloyl]-L-arginine]	50.6 ± 7.5%	–	–	50% Reaction Threshold (g), Group Administered with Test Substance, 30 Min. After Administration (Chung model rat; oral single dose 1 mg/kg): 6.21 ± 1.04 g
Cn1cc(C[C@H](NC(=O)C=Cc2ccc(F)cc2)C(=O)O)c2ccccc21 [Compound 28, N^α-[3-(4-Fluorophenyl)acryloyl]-1-methyl-L-tryptophan]	56.5 ± 5.3%	183000 ng·h/mL	37700 ng/mL	–
COc1ccc(C[C@H](NC(=O)C=Cc2ccc(F)cc2F)C(=O)O)cc1 [Compound 51, N-[3-(2,4-Difluorophenyl)acryloyl]-O^4-Methyl-L-Tyrosine]	42.2 ± 9.1%	116000 ng·h/mL	33000 ng/mL	–
O=C(C=Cc1ccc(Oc2ccccc2)cc1)N[C@@H](Cc1c[nH]c2ccccc12)C(=O)O [Compound 18, N^α-[3-(4-Phenoxyphenyl)acryloyl]-L-tryptophan]	56.5 ± 4.2%	–	–	50% Reaction Threshold (g), Group Administered with Test Substance, 30 Min. After Administration (Chung model rat; oral single dose 10 mg/kg): 11.73 ± 1.60 g
COc1ccc(C[C@H](NC(=O)C=Cc2ccc(C#N)cc2)C(=O)O)cc1 [Compound 56, N-[3-(4-Cyanophenyl)acryloyl]-O^4-methyl-L-tyrosine]	–	7000 ng·h/mL	3500 ng/mL	inhibition in vivo at 100 mg/kg (ddY-type mice): 48.7 ± 10.1%
NC(=O)[C@H](Cc1c[nH]c2ccccc12)NC(=O)C=Cc1ccccc1F [Compound 23, N^α-[3-(2-Fluorophenyl)acryloyl]-L-tryptophanamide]	–	–	–	50% Reaction Threshold (g), Group Administered with Test Substance, 30 Min. After Administration (Chung model rat; oral single dose 10 mg/kg): 9.37 ± 1.56 g; inhibition in vivo at 100 mg/kg (ddY-type mice): 48.2 ± 11.5%
Cn1cc(C[C@H](NC(=O)C(C#N)=Cc2ccccc2F)C(=O)O)c2ccccc21 [Compound 37, N^α-[2-Cyano-3-(2-fluorophenyl)acryloyl]-1-methyl-L-tryptophan]	37.9 ± 7.5%	6800 ng·h/mL	1500 ng/mL	–
COc1ccc(C[C@H](NC(=O)C=Cc2ccccc2O)C(=O)O)cc1 [Compound 39, N-[3-(2-Hydroxyphenyl)acryloyl]-O^4-methyl-L-tyrosine]	–	–	–	50% Reaction Threshold (g), Group Administered with Test Substance, 30 Min. After Administration (Chung model rat; oral single dose 10 mg/kg): 11.44 ± 1.70 g
Cn1cc(C[C@H](NC(=O)C=Cc2ccccc2O)C(=O)O)c2ccccc21 [Compound 26, N^α-[3-(2-Hydroxyphenyl)acryloyl]-1-methyl-L-tryptophan]	30.5 ± 9.2%	–	–	–
COc1ccc(C[C@H](NC(=O)C=Cc2cccc(C#N)c2)C(=O)O)cc1 [Compound 54, N-[3-(3-Cyanophenyl)acryloyl]-O^4-methyl-L-tyrosine]	–	–	–	inhibition in vivo at 100 mg/kg (ddY-type mice): 33.3 ± 10%
O=Cn1cc(C[C@H](NC(=O)C=Cc2ccccc2F)C(=O)O)c2ccccc21 [Compound 68, N^α-[3-(2-Fluorophenyl)acryloyl]-1-formyl-L-tryptophan]	–	–	–	inhibition in vivo at 100 mg/kg (ddY-type mice): 55.4 ± 9.9%
Cn1cc(C[C@H](NC(=O)C=Cc2ccccc2F)C(=O)O)c2ccccc21 [Compound 27, N^α-[3-(2-Fluorophenyl)acryloyl]-1-methyl-L-tryptophan]	–	404000 ng·h/mL	53300 ng/mL	inhibition in vivo at 3 mg/kg (ddY-type mice): 45 ± 10%
